Experimental findings from patent US9169252B2 (BRISTOL-MYERS SQUIBB COMPANY, priority 2014, dated 2015) are described below.

Where two headings read alike, the source gives them in different places.

In one assay the target is IRAK4 (Homo sapiens (Human), UniProt Q9NWZ3). Description: IRAK4 Inhibition Assay. The note with it: ATP 500 μM; IRAK4 0.6 nM; read-out: IRAK4 IC50. Type of assay: biochemical. An outline of the steps:
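Mobility-shift readout: fluorescent substrate and phosphoproduct resolved electrophoretically on Caliper LabChip 3000 after EDTA quench (35 mM). Enzyme reaction of IRAK4, substrates and test compound ran 60 min at room temperature.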

The test system of assay [1] is TLR2 induced IL-6 in peripheral blood mononuclear cells (PBMCs). The assay is described as follows: PBMC TLR2 Induced IL-6 Assay. Type of assay: cell-based, human. The note with it: human PBMCs, lipoteichoic acid stimulated, IL-6 by ELISA; for EC50: read-out: Cell EC50; for IC50: read-out: Cell IC50. A digest of the protocol:
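Lipoteichoic acid at 10 µg/ml served as TLR2 stimulus for 5 hours, following a 30-minute compound pretreatment at 37° C. Cells were Ficoll-isolated human PBMCs, 250000 cells/well, cultured in RPMI plus 10% heat-inactivated FCS.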
A general note: An ELISA detects its analyte on a solid surface through an enzyme-linked reagent.

Chain of IRAK4 (Q9NWZ3 whole entry, species assumed): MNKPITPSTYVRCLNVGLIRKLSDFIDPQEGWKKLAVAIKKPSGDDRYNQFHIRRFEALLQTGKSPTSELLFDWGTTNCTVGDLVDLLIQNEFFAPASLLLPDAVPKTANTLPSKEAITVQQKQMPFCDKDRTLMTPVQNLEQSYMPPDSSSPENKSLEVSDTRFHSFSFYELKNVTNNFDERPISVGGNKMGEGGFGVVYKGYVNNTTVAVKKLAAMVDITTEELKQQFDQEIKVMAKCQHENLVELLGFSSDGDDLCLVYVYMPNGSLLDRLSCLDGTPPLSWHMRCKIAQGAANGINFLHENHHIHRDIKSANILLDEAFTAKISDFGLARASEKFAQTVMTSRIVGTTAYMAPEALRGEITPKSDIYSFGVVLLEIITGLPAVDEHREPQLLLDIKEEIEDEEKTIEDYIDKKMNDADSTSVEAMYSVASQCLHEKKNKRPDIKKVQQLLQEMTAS

A word on the IC50: it is the midpoint of a concentration-inhibition curve. In general, EC50 refers to the concentration at which the effect is half-maximal. As to `CC(C)(O)[C@H](F)CNC(=O)c1cnc(-n2ccc3cc(C#N)cnc32)cc1Nc1ccc2[nH]ncc2c1` [Example 438], the IC50 at IRAK4 worked out at 2.5 nM. In assay [1] (Homo sapiens, PBMC), the EC50 came to 33 nM.

Turning to `CC(C)(O)[C@H](F)CNC(=O)c1cnc(-n2ccc3cc(C#N)cnc32)cc1Nc1ccc2nc[nH]c2c1` [Example 439], at IRAK4, the IC50 turned out to be 2.6 nM. Further, in assay [1] (Homo sapiens, PBMC), the EC50 was determined as 73 nM.

Consider `CC(C)(O)[C@H](F)CNC(=O)c1cnc(-n2ccc3cc(C#N)cnc32)cc1N[C@@H]1CCOC1` [Example 440], for which, on IRAK4, the IC50 stood at 1.9 nM. In assay [1] (Homo sapiens, PBMC), the EC50 stood at 72 nM.

For `CC(C)(O)[C@H](F)CNC(=O)c1cnc(-n2ccc3cc(C#N)cnc32)cc1N[C@H]1CCOC1` [Example 441], the IC50 on IRAK4 came out at 3 nM. Moreover, the EC50 in assay [1] (Homo sapiens, PBMC) worked out at 109 nM.

As for `CC(C)Nc1cc(-n2ccc3cc(C#N)cnc32)ncc1C(=O)NC1CCN(S(C)(=O)=O)CC1` [Example 447], the IC50 on IRAK4 stood at 5.3 nM. The EC50 in assay [1] (Homo sapiens, PBMC) turned out to be 92 nM.

With `CCOC(C)(C)[C@H](F)CNC(=O)c1cnc(-n2ccc3cc(C#N)cnc32)cc1NC(C)C` [Example 448], the IC50 at IRAK4 worked out at 2.4 nM. Further, the 50% effective concentration (EC50) in assay [1] (Homo sapiens, PBMC) is 175 nM.

With `CC(C)(O)[C@H](F)CNC(=O)c1cnc(-n2ccc3cc(C#N)cnc32)cc1N[C@@H]1CCN(c2ncc(F)cn2)C1` [Example 449], the IC50 at IRAK4 is 1.5 nM. Moreover, in assay [1] (Homo sapiens, PBMC), the EC50 was 82 nM and the IC50 is 59 nM.

On to `C[C@@H](Nc1cc(-n2ccc3cc(C#N)cnc32)ncc1C(=O)NC[C@@H](F)C(C)(C)O)C1CC1` [Example 450], for which the IC50 on IRAK4 came to 2.8 nM; in assay [1] (Homo sapiens, PBMC) it was 438 nM. Moreover, the EC50 in assay [1] (Homo sapiens, PBMC) was determined as 268 nM.

For `C[C@H](Nc1cc(-n2ccc3cc(C#N)cnc32)ncc1C(=O)NC[C@@H](F)C(C)(C)O)C1CC1` [Example 451], the IC50 on IRAK4 turned out to be 4.4 nM. Moreover, the EC50 in assay [1] (Homo sapiens, PBMC) was 429 nM.

For the compound `CC(C)Nc1cc(-n2ccc3cc(C#N)cnc32)ncc1C(=O)NCCNS(=O)(=O)N1CCOCC1` [Example 452], the IC50 on IRAK4 was found to be 5.2 nM. In addition, in assay [1] (Homo sapiens, PBMC), the EC50 is 700 nM and the IC50 is 252 nM.

As for `CS(=O)(=O)NCCNC(=O)c1cnc(-n2ccc3cc(C#N)cnc32)cc1NC1CC1` [Example 453], at IRAK4, the IC50 came out at 4.4 nM. In assay [1] (Homo sapiens, PBMC), the EC50 stood at 213 nM and the IC50 came out at 326 nM.

`CC(C)(O)[C@H](F)CNC(=O)c1cnc(-n2ccc3cc(C#N)cnc32)cc1N[C@@H]1COC[C@H]1O` [Example 455]: on IRAK4, the IC50 came out at 2.2 nM. In addition, in assay [1], the EC50 is 72 nM.

Regarding `CC(C)(O)[C@H](F)CNC(=O)c1cnc(-n2ccc3cc(C#N)cnc32)cc1N[C@@H]1COC[C@H]1O` [Example 456], at IRAK4, the IC50 came out at 4.8 nM. In assay [1], the half-maximal effective concentration (EC50) worked out at 241 nM.

As for `CC(C)(C)OC(=O)N1CC(Nc2cc(-n3ccc4cc(C#N)cnc43)ncc2C(=O)NC[C@@H](F)C(C)(C)O)C1` [Example 457], at IRAK4, the IC50 came out at 10.3 nM. In addition, in assay [1] (Homo sapiens, PBMC), the EC50 was 458 nM and the IC50 came to 1240 nM.

As to `CC(C)(O)[C@H](F)CNC(=O)c1cnc(-n2ccc3cc(C#N)cnc32)cc1NC1CCN(S(C)(=O)=O)CC1` [Example 463], on IRAK4, the IC50 is 1.7 nM. The 50% effective concentration (EC50) in assay [1] (Homo sapiens, PBMC) was 23 nM.

For the compound `CC(C)(O)[C@H](F)CNC(=O)c1cnc(-n2ccc3cc(C#N)cnc32)cc1NC1CCN(c2ccccc2)CC1` [Example 464], on IRAK4, the IC50 was found to be 3.1 nM. Also, in assay [1] (Homo sapiens, PBMC), the EC50 is 257 nM.

For the compound `CC(C)(O)[C@H](F)CNC(=O)c1cnc(-n2ccc3cc(C#N)cnc32)cc1N[C@@H]1CCN(S(C)(=O)=O)C1` [Example 465], the IC50 at IRAK4 amounted to 1.3 nM. For the same compound, in assay [1] (Homo sapiens, PBMC), the EC50 turned out to be 7 nM and the IC50 was 23 nM.

In the case of `CC(C)(O)[C@H](F)CNC(=O)c1cnc(-n2ccc3cc(C#N)cnc32)cc1N[C@@H]1CCNC1` [Example 466], the half-inhibitory concentration (IC50) at IRAK4 came to 13.9 nM. Also, in assay [1] (Homo sapiens, PBMC), the EC50 is 792 nM and the IC50 is 130 nM.

Consider `CC(C)Nc1cc(-n2ccc3cc(C#N)cnc32)ncc1C(=O)NCC(=O)N1CCN(C)CC1` [Example 467], for which the IC50 on IRAK4 was 2.3 nM; in assay [1] (Homo sapiens, PBMC), 100 nM. Besides, the EC50 in assay [1] (Homo sapiens, PBMC) is 26 nM.

Take `CC(=O)N1CC(Nc2cc(-n3ccc4cc(C#N)cnc43)ncc2C(=O)NC[C@@H](F)C(C)(C)O)C1` [Example 468]: the IC50 at IRAK4 was 5.8 nM. Moreover, in assay [1] (Homo sapiens, PBMC), the EC50 stood at 128 nM and the IC50 was determined as 1010 nM.

`CC(=O)N1CC[C@@H](Nc2cc(-n3ccc4cc(C#N)cnc43)ncc2C(=O)NC[C@@H](F)C(C)(C)O)C1` [Example 469]: the IC50 on IRAK4 was 2.9 nM. Further, in assay [1] (Homo sapiens, PBMC), the EC50 worked out at 84 nM and the IC50 came out at 207 nM.

Consider `CC(=O)N1CCC(Nc2cc(-n3ccc4cc(C#N)cnc43)ncc2C(=O)NC[C@@H](F)C(C)(C)O)CC1` [Example 470], for which, on IRAK4, the IC50 was 8 nM. In addition, the EC50 in assay [1] (Homo sapiens, PBMC) turned out to be 240 nM.

For the compound `CC(C)(O)[C@H](F)CNC(=O)c1cnc(-n2ccc3cc(C#N)cnc32)cc1Nc1ccc(-n2ccnc2)cc1` [Example 471], the IC50 on IRAK4 came out at 10.1 nM. In assay [1] (Homo sapiens, PBMC), the EC50 stood at 194 nM.

On to `CC(C)(O)[C@H](F)CNC(=O)c1cnc(-n2ccc3cc(C#N)cnc32)cc1NC1CN(c2ncc(F)cn2)C1` [Example 472], for which, at IRAK4, the IC50 was 2 nM. Besides, in assay [1] (Homo sapiens, PBMC), the EC50 was determined as 70 nM and the IC50 came to 123 nM.

For the compound `CC(C)(O)[C@H](F)CNC(=O)c1cnc(-n2ccc3cc(C#N)cnc32)cc1N[C@@H]1CCN(C(=O)CC(F)(F)F)C1` [Example 473], the IC50 at IRAK4 worked out at 4.1 nM; in assay [1] (Homo sapiens, PBMC) it was 483 nM. In assay [1] (Homo sapiens, PBMC), the EC50 is 238 nM.

`COC(=O)N1CC[C@@H](Nc2cc(-n3ccc4cc(C#N)cnc43)ncc2C(=O)NC[C@@H](F)C(C)(C)O)C1` [Example 474]: the IC50 at IRAK4 turned out to be 1.2 nM; in assay [1] (Homo sapiens, PBMC), 315 nM. The EC50 in assay [1] (Homo sapiens, PBMC) was found to be 77 nM.

For `CC(C)(O)[C@H](F)CNC(=O)c1cnc(-n2ccc3cc(C#N)cnc32)cc1NC1CN(S(C)(=O)=O)C1` [Example 476], on IRAK4, the concentration for half-maximal inhibition (IC50) was found to be 3 nM. Further, the EC50 in assay [1] (Homo sapiens, PBMC) worked out at 198 nM.

Take `CC(C)(O)[C@H](F)CNC(=O)c1cnc(-n2ccc3cc(C#N)cnc32)cc1N[C@@H]1CCN(C(=O)CC#N)C1` [Example 477]: the IC50 at IRAK4 was 2.9 nM. For the same compound, in assay [1] (Homo sapiens, PBMC), the EC50 turned out to be 301 nM and the IC50 was 1300 nM.

Turning to `C[C@@H](CO)Nc1cc(-n2ccc3cc(C#N)cnc32)ncc1C(=O)NCCNS(C)(=O)=O` [Example 478], the IC50 on IRAK4 came to 4.7 nM. Also, in assay [1] (Homo sapiens, PBMC), the EC50 was determined as 462 nM and the IC50 was 805 nM.

Turning to `CS(=O)(=O)NCCNC(=O)c1cnc(-n2ccc3cc(C#N)cnc32)cc1NC1CCOCC1` [Example 479], the IC50 on IRAK4 worked out at 5.7 nM. In addition, in assay [1] (Homo sapiens, PBMC), the EC50 amounted to 144 nM and the IC50 was found to be 835 nM.

Consider `CC(C)(O)[C@H](F)CNC(=O)c1cnc(-n2ccc3cc(C#N)cnc32)cc1NCCN1CCOCC1` [Example 480], for which the IC50 came to 4 nM at IRAK4 and 270 nM in assay [1] (Homo sapiens, PBMC). The EC50 in assay [1] (Homo sapiens, PBMC) stood at 170 nM.

Consider `COC(=O)N1CC(Nc2cc(-n3ccc4cc(C#N)cnc43)ncc2C(=O)NC[C@@H](F)C(C)(C)O)C1` [Example 481], for which the IC50 on IRAK4 worked out at 1.9 nM. Moreover, in assay [1] (Homo sapiens, PBMC), the EC50 came out at 53 nM and the IC50 stood at 595 nM.

In the case of `CC(C)(O)[C@H](F)CNC(=O)c1cnc(-n2ccc3cc(C#N)cnc32)cc1NCC1CCOCC1` [Example 482], the IC50 on IRAK4 worked out at 17.4 nM. The EC50 in assay [1] (Homo sapiens, PBMC) was found to be 433 nM.
